Here are results for 13 molecules from PubChem BioAssay (NCI).

Test systems include SF-295 CNS; TK-10 renal; PC-3 prostate; MDA-MB-231 breast; HT29 colon; BT-549 breast; CCRF-CEM leukemia; SNB-19 CNS; SK-MEL-28 melanoma; OVCAR-3 ovarian.
Common to all, as to experiment: inhibition of tumour cell growth, NCI panel, 48 h

Molecules are shown by their SMILES.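 All cell lines were grown in 96-well plates and treated with compound for 48 hours. The concentration for full growth arrest is given as TGI.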

`COc1ccc(C(=C(I)c2ccccc2)c2ccc(OC)cc2)cc1`: the TGI in the experiment on SF-295 CNS, in the experiment with TK-10 renal, with PC-3 prostate, with MDA-MB-231 breast, with HT29 colon and in the experiment on BT-549 breast was > 100 µM in each case. In addition, the TGI with CCRF-CEM leukemia, with SNB-19 CNS, with SK-MEL-28 melanoma and with OVCAR-3 ovarian was > 100 µM throughout.
On to `O=C1C=C2CO[C@H]3OC[C@H](O)[C@@H]1[C@@H]23`, for which the TGI in the experiment with SF-295 CNS, with TK-10 renal, in the experiment with PC-3 prostate, in the experiment on MDA-MB-231 breast, in the experiment with HT29 colon and with BT-549 breast was > 100 µM throughout. Moreover, the TGI is 66.8 µM in the experiment with CCRF-CEM leukemia, > 100 µM in the experiment with SNB-19 CNS, > 100 µM in the experiment on SK-MEL-28 melanoma and > 100 µM with OVCAR-3 ovarian.
Consider `NCCNCCCCCCNC(=O)c1cccc2cc3ccccc3nc12`, for which the TGI is 10.6 µM in the experiment with SF-295 CNS; 20.8 µM in the experiment with TK-10 renal; 8.79 µM in the experiment with PC-3 prostate; 7.13 µM with MDA-MB-231 breast; 3.77 µM with HT29 colon; 25.2 µM in the experiment on BT-549 breast. Also, the TGI was found to be 7.26 µM in the experiment on CCRF-CEM leukemia, 9.58 µM in the experiment with SNB-19 CNS, 12.3 µM in the experiment with SK-MEL-28 melanoma and 7.16 µM in the experiment with OVCAR-3 ovarian.
On to `CCCC(CC)c1c(O)c(O)c(C(CC)CCC)c(C(CC)CCC)c1C(CC)CCC` (centres undefined), for which the TGI in the experiment on SF-295 CNS, in the experiment on TK-10 renal, in the experiment on PC-3 prostate, in the experiment on MDA-MB-231 breast, in the experiment on HT29 colon and in the experiment on BT-549 breast was > 10 µM in each case. In addition, the TGI in the experiment on CCRF-CEM leukemia, with SNB-19 CNS, in the experiment with SK-MEL-28 melanoma and in the experiment with OVCAR-3 ovarian was > 10 µM in each case.
Consider `N#Cc1c(N2CCCC2)ncn(Cc2ccccc2)c1=S`, for which the TGI with SF-295 CNS, with TK-10 renal, with PC-3 prostate, with MDA-MB-231 breast, in the experiment on HT29 colon and with BT-549 breast was > 100 µM in each case. Besides, the TGI in the experiment with CCRF-CEM leukemia, in the experiment on SNB-19 CNS, in the experiment on SK-MEL-28 melanoma and in the experiment with OVCAR-3 ovarian was > 100 µM each time.
As for `c1cc(C[S+]2CCCC2)ccc1C[S+]1CCCC1`, the TGI in the experiment on SF-295 CNS, in the experiment on TK-10 renal, in the experiment on PC-3 prostate, in the experiment on MDA-MB-231 breast, in the experiment on HT29 colon and with BT-549 breast was > 100 µM throughout. The TGI in the experiment with CCRF-CEM leukemia, with SNB-19 CNS, in the experiment with SK-MEL-28 melanoma and with OVCAR-3 ovarian was > 100 µM each time.
As to `COc1c(OC)c(O)c2c(=O)c(OC)c(-c3ccc4c(c3)OCO4)oc2c1O`, the TGI in the experiment on SF-295 CNS, with TK-10 renal, in the experiment with PC-3 prostate, with MDA-MB-231 breast, in the experiment on HT29 colon and with BT-549 breast was > 100 µM throughout. In addition, the TGI in the experiment on CCRF-CEM leukemia, in the experiment with SNB-19 CNS, in the experiment with SK-MEL-28 melanoma and in the experiment on OVCAR-3 ovarian was > 100 µM throughout.
On to `O=C(Nc1nnc(-c2ccccc2)o1)C(SC(=S)N1CCOCC1)c1ccccc1` (centres undefined), for which the TGI with SF-295 CNS, with TK-10 renal, in the experiment on PC-3 prostate, with MDA-MB-231 breast, in the experiment with HT29 colon and in the experiment with BT-549 breast was > 100 µM throughout. Besides, the TGI with CCRF-CEM leukemia is > 100 µM; with SNB-19 CNS, > 100 µM; in the experiment on SK-MEL-28 melanoma, > 100 µM; with OVCAR-3 ovarian, 79.7 µM.
For `C=CC(C)(C)N[C@@H](C(=O)N1CCC[C@H]1c1nc(-c2nc(C(=O)OCC=C(C)C)c(C)o2)c(C)o1)C(C)C`, the TGI with SF-295 CNS was 42.8 µM; in the experiment with TK-10 renal it was 63.2 µM; in the experiment on PC-3 prostate, > 100 µM; in the experiment with MDA-MB-231 breast it was 51.3 µM; in the experiment on HT29 colon, 46.1 µM; in the experiment on BT-549 breast it was 46.2 µM. Moreover, the TGI stood at 41.8 µM in the experiment on CCRF-CEM leukemia, 55 µM in the experiment with SNB-19 CNS, 38.2 µM in the experiment with SK-MEL-28 melanoma and 59.5 µM in the experiment with OVCAR-3 ovarian.
Regarding `O=C(NCCCCNCCCNC(=O)c1ccccc1)c1ccccc1`, the TGI in the experiment with SF-295 CNS, in the experiment on TK-10 renal, in the experiment with PC-3 prostate, in the experiment with MDA-MB-231 breast, in the experiment on HT29 colon and with BT-549 breast was > 100 µM in each case. The TGI in the experiment with CCRF-CEM leukemia, in the experiment with SNB-19 CNS, with SK-MEL-28 melanoma and with OVCAR-3 ovarian was > 100 µM in each case.
Take `COCN1CCN=c2c1c1c3c(c4ccccc4n23)CCC1`: the TGI in the experiment with SF-295 CNS, in the experiment on TK-10 renal, in the experiment with PC-3 prostate, with MDA-MB-231 breast, with HT29 colon and in the experiment with BT-549 breast was > 100 µM in each case. Moreover, the TGI with CCRF-CEM leukemia, in the experiment with SNB-19 CNS, in the experiment with SK-MEL-28 melanoma and in the experiment on OVCAR-3 ovarian was > 100 µM throughout.
On to `N#CC(C#N)=Cc1c(O)ccc2ccccc12`, for which the TGI is 29.5 µM with SF-295 CNS; 32.2 µM with TK-10 renal; 33.6 µM in the experiment with PC-3 prostate; 30.4 µM in the experiment with MDA-MB-231 breast; 41.1 µM with HT29 colon; 32.1 µM in the experiment on BT-549 breast. In addition, the TGI was 5.17 µM with CCRF-CEM leukemia, 30.5 µM with SNB-19 CNS, 28.9 µM with SK-MEL-28 melanoma and 27.4 µM in the experiment on OVCAR-3 ovarian.
As for `COC(=O)/C=C\C(C#N)(C#N)N=Cc1ccc(C)s1`, the TGI is 31.8 µM with SF-295 CNS; 3.8 µM in the experiment with TK-10 renal; 6.72 µM in the experiment on PC-3 prostate; 18.3 µM with MDA-MB-231 breast; 12.2 µM in the experiment on BT-549 breast; 1.64 µM with CCRF-CEM leukemia. In addition, the TGI amounted to 32.8 µM with SNB-19 CNS, 9.64 µM in the experiment on SK-MEL-28 melanoma and 9.81 µM in the experiment on OVCAR-3 ovarian.
